According to patent publication US20260250318A1, “COMPOSITIONS AND METHODS FOR CROSSING THE BLOOD BRAIN BARRIER” (VOYAGER THERAPEUTICS, INC., priority 2022, published 2026):

Tests used:
Details in all cases: synthetic library passage 3, intravenous, relative to wild-type AAV9
[1] = test system: brain, spinal cord, and DRG of the NHPs; experiment: NGS fold enrichment of synthetic library (passage 3) in NHPs, first cross-species screen; assay type: in vivo, cynomolgus macaques (Macaca fascicularis)
Outline: (§1)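 Synthetic capsid library (passage 3) was given intravenously […] to NHPs aged 2-4 years and to BALB/c and C57Bl/6 mice (n=3 each, 6-8 weeks). After about 28 days in vivo, tissue RNA was RT-PCR amplified and NGS-sequenced; values are fold enrichment per variant relative to wild-type AAV9.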

[2] = test system: brain; experiment: NGS fold enrichment of synthetic library (passage 3) in BALB/c mice, first cross-species screen; assay type: in vivo
Outline: as §1

[3] = test system: brain; experiment: NGS fold enrichment of synthetic library (passage 3) in C57Bl/6 mice, first cross-species screen; assay type: in vivo
Outline: as §1

[4] = RNA from spinal cord of NHPs, NGS
[5] = RNA from brain of BALB/c mice, NGS
[6] = RNA from brain of C57Bl/6 mice, NGS

Sequence | Fold enrichment over AAV9 in the brain of NHPs ([1]; RNA NGS, brain of NHPs) [fold] | Fold enrichment over AAV9 in the spinal cord of NHPs ([1]; RNA NGS, spinal cord of NHPs) [fold] | Fold enrichment over AAV9 in the brain of Mice (BALB/c) ([2]; RNA NGS, brain of BALB/c mice) [fold] | Fold enrichment over AAV9 in the brain of Mice (C57Bl/6) ([3]; RNA NGS, brain of C57Bl/6 mice) [fold] | Fold enrichment over AAV9 in the brain of NHPs ([1]; RNA from brain of NHPs, NGS) [fold] | Fold enrichment over AAV9 in the spinal cord of NHPs [1, 4] [fold] | Fold enrichment over AAV9 in the brain of Mice (BALB/c) [2, 5] [fold] | Fold enrichment over AAV9 in the brain of Mice (C57Bl/6) [3, 6] [fold]
GSGQVHASQVNQKT | 1.049 | 0.503 | 0.767 | 0.855 | – | – | – | –
GSGQVHNPTQNQQT | – | – | – | – | 1.410 | 2.488 | 0.542 | 1.021
GSGQVHQAEVNQQT | 1.825 | 0.152 | 0.287 | 0.436 | – | – | – | –
GSGQVVAHVGNQQT | 1.901 | 0.833 | 0.321 | 0.800 | – | – | – | –
GSGQVVGLSGNQQT | 2.052 | 7.212 | 0.881 | 0.785 | – | – | – | –
GSGQVYISTPNQQT | – | – | – | – | 1.367 | 0.000 | 0.282 | 0.859
GSGQYANHGINQQT | 1.820 | 5.717 | 0.701 | 0.906 | – | – | – | –
GSGQYASSIPNQQT | 2.346 | 3.321 | 0.489 | 1.022 | – | – | – | –
GSGQYRSSSDNQQT | – | – | – | – | 1.369 | 6.209 | 0.409 | 0.681
GSGQYVHVSSNQQT | – | – | – | – | 1.137 | 1.803 | 0.366 | 0.739
GSGRHLASVQNQQT | – | – | – | – | 1.187 | 1.024 | 0.606 | 0.654
GSGRLVPNGPNQQT | 2.314 | 3.925 | 0.411 | 0.639 | – | – | – | –
GSGRNPQTQPLQQT | 1.519 | 0.040 | 0.573 | 0.733 | – | – | – | –
GSGSDMSSWQNQQT | 1.651 | 0.175 | 0.303 | 0.281 | – | – | – | –
GSGSHHASRQNQQT | 1.712 | 0.451 | 0.584 | 3.073 | – | – | – | –
GSGSHRDVSQNQQT | 2.843 | 4.022 | 0.550 | 0.626 | – | – | – | –
GSGSKQNALQNQQT | – | – | – | – | 1.216 | 2.010 | 0.594 | 0.941
GSGSLRDFDQNQQT | 2.120 | 6.846 | 0.272 | 0.586 | – | – | – | –
GSGSNMRLSQNQQT | – | – | – | – | 1.363 | 0.588 | 0.730 | 0.962
GSGSPHARMQNQQT | 56.138 | 22.690 | 4.164 | 7.795 | – | – | – | –

Sequence | Fold enrichment over AAV9 in the brain of NHPs ([1]; RNA NGS, brain of NHPs) [fold] | Fold enrichment over AAV9 in the spinal cord of NHPs ([1]; RNA NGS, spinal cord of NHPs) [fold] | Fold enrichment over AAV9 in the brain of Mice (BALB/c) ([2]; RNA NGS, brain of BALB/c mice) [fold] | Fold enrichment over AAV9 in the brain of Mice (C57Bl/6) ([3]; RNA NGS, brain of C57Bl/6 mice) [fold] | Fold enrichment over AAV9 in the brain of NHPs ([1]; RNA from brain of NHPs, NGS) [fold] | Fold enrichment over AAV9 in the spinal cord of NHPs [1, 4] [fold] | Fold enrichment over AAV9 in the brain of Mice (BALB/c) [2, 5] [fold] | Fold enrichment over AAV9 in the brain of Mice (C57Bl/6) [3, 6] [fold]
GSGSPHPSRQNQQT | 3.017 | 1.993 | 0.975 | 1.869 | – | – | – | –
GSGSPHVKIQNQQT | 16.854 | 9.068 | 2.227 | 2.173 | – | – | – | –
GSGSPHVKSQNQQT | 37.551 | 13.649 | 15.861 | 8.069 | – | – | – | –
GSGSPHVRMQNQQT | 11.574 | 6.764 | 10.076 | 9.121 | – | – | – | –
GSGSPQASRQNQQT | – | – | – | – | 1.189 | 6.782 | 0.542 | 0.923
GSGSPRDSIQNQQT | 1.981 | 4.914 | 0.446 | 0.171 | – | – | – | –
GSGSPRQLSQNQQT | 1.621 | 0.873 | 0.273 | 0.520 | – | – | – | –
GSGSQHSKAQNQQT | – | – | – | – | 1.168 | 0.312 | 0.916 | 0.638
GSGSQLMSLQNQQT | 2.065 | 3.559 | 0.172 | 0.563 | – | – | – | –
GSGSSSMSFQNQQT | – | – | – | – | 1.279 | 0.540 | 0.095 | 0.466
GSGSSSRPYQNQQT | 1.934 | 3.823 | 0.496 | 0.962 | – | – | – | –
GSGSTHSKAQNQQT | – | – | – | – | 1.410 | 0.515 | 0.801 | 0.921
GSGSVGFIGQNQQT | – | – | – | – | 1.227 | 8.261 | 0.445 | 0.689
GSGSVSQLGQNQQT | 3.184 | 2.307 | 0.375 | 0.596 | – | – | – | –
GSGTHLVSLQNQQT | – | – | – | – | 1.392 | 0.000 | 1.167 | 0.715
GSGTHNSAIQNQQT | 1.469 | 0.570 | 0.574 | 0.762 | – | – | – | –
GSGTHYDNRQNQQT | 1.054 | 0.072 | 0.486 | 0.612 | – | – | – | –
GSGTLYPQSQNQQT | 2.761 | 5.558 | 0.160 | 0.324 | – | – | – | –
GSGTQIPSQQNQQT | 3.112 | 1.224 | 0.151 | 0.470 | – | – | – | –
GSGTSGKTGKNQQT | – | – | – | – | 1.333 | 4.033 | 0.676 | 0.358
